Reference: PubChem BioAssay (NCI)
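The compound was tested at five concentrations on cells cultured in 96-well plates, with a 48-hour exposure period. GI50 = concentration required for 50% inhibition of growth. TGI: total growth inhibition.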

Key:
Test in all cases: NCI-60 cell line screen, 48 h
[1] = system: 786-0 renal
[2] = system: A498 renal
[3] = system: A549 NSCLC
[4] = system: ACHN renal
[5] = system: BT-549 breast
[6] = system: CAKI-1 renal
[7] = system: CCRF-CEM leukemia
[8] = system: DU-145 prostate
[9] = system: EKVX NSCLC
[10] = system: HCC-2998 colon
[11] = system: HCT-116 colon
[12] = system: HCT-15 colon
[13] = system: HL-60(TB) leukemia
[14] = system: HOP-62 NSCLC
[15] = system: HOP-92 NSCLC
[16] = system: HS 578T breast
[17] = system: HT29 colon
[18] = system: IGROV1 ovarian
[19] = system: K-562 leukemia
[20] = system: KM12 colon
[21] = system: LOX IMVI melanoma
[22] = system: M14 melanoma
[23] = system: MCF7 breast
[24] = system: MDA-MB-231 breast
[25] = system: MDA-MB-435
[26] = system: MOLT-4 leukemia
[27] = system: NCI-H226 lung
[28] = system: NCI-H460 lung
[29] = system: NCI-H522 lung
[30] = system: NCI/ADR-RES ovarian
[31] = system: OVCAR-3 ovarian
[32] = system: OVCAR-4 ovarian
[33] = system: OVCAR-5 ovarian
[34] = system: OVCAR-8 ovarian
[35] = system: PC-3 prostate
[36] = system: RPMI-8226 leukemia
[37] = system: RXF 393 renal
[38] = system: SF-268 CNS
[39] = system: SF-295 CNS
[40] = system: SF-539 CNS
[41] = system: SK-MEL-2 melanoma
[42] = system: SK-MEL-28 melanoma
[43] = system: SK-MEL-5 melanoma
[44] = system: SN12C renal
[45] = system: SNB-19 CNS
[46] = system: SNB-75 CNS
[47] = system: SR leukemia
[48] = system: SW-620 colon
[49] = system: TK-10 renal
[50] = system: U251 CNS
[51] = system: UACC-257 melanoma
[52] = system: UACC-62 melanoma
[53] = system: UO-31 renal

`CC1SC(c2ccc(F)cc2)N(NC(=O)C(O)c2ccccc2)C1=O` (stereo unspecified) showed a GI50 [1] greater than 100 µM, a TGI [1] greater than 100 µM and a GI50 [2] greater than 100 µM. The TGI [2] was greater than 100 µM, the GI50 [3] was greater than 100 µM and the TGI [3] was greater than 100 µM. The GI50 [4] was greater than 100 µM, the TGI [4] was greater than 100 µM and the GI50 [5] was greater than 100 µM. For the same compound, the TGI [5] was greater than 100 µM, the GI50 [6] was greater than 100 µM and the TGI [6] was greater than 100 µM. It also gave a GI50 [7] greater than 100 µM, a TGI [7] greater than 100 µM and a GI50 [8] greater than 100 µM. For the same compound, the TGI [8] was greater than 100 µM, the GI50 [9] was greater than 100 µM and the TGI [9] was greater than 100 µM. For the same compound, the GI50 [10] was greater than 100 µM, the TGI [10] was greater than 100 µM and the GI50 [11] was greater than 100 µM. The TGI [11] was greater than 100 µM, the GI50 [12] was greater than 100 µM and the TGI [12] was greater than 100 µM. It also gave a GI50 [13] greater than 100 µM, a TGI [13] greater than 100 µM and a GI50 [14] greater than 100 µM. It also gave a TGI [14] greater than 100 µM, a GI50 [15] greater than 100 µM and a TGI [15] greater than 100 µM. The GI50 [16] was greater than 100 µM, the TGI [16] was greater than 100 µM and the GI50 [17] was greater than 100 µM. The TGI [17] was greater than 100 µM, the GI50 [18] was greater than 100 µM and the TGI [18] was greater than 100 µM. For the same compound, the GI50 [19] was greater than 100 µM, the TGI [19] was greater than 100 µM and the GI50 [20] was greater than 100 µM. It also gave a TGI [20] greater than 100 µM, a GI50 [21] greater than 100 µM and a TGI [21] greater than 100 µM. The GI50 [22] was greater than 100 µM, the TGI [22] was greater than 100 µM and the GI50 [23] was greater than 100 µM. For the same compound, the TGI [23] was greater than 100 µM, the GI50 [24] was greater than 100 µM and the TGI [24] was greater than 100 µM. For the same compound, the GI50 [25] was greater than 100 µM, the TGI [25] was greater than 100 µM and the GI50 [26] was greater than 100 µM. For the same compound, the TGI [26] was greater than 100 µM, the GI50 [27] was greater than 100 µM and the TGI [27] was greater than 100 µM. For the same compound, the GI50 [28] was greater than 100 µM, the TGI [28] was greater than 100 µM and the GI50 [29] was greater than 100 µM. It also gave a TGI [29] greater than 100 µM, a GI50 [30] greater than 100 µM and a TGI [30] greater than 100 µM. For the same compound, the GI50 [31] was greater than 100 µM, the TGI [31] was greater than 100 µM and the GI50 [32] was greater than 100 µM. It also gave a TGI [32] greater than 100 µM, a GI50 [33] greater than 100 µM and a TGI [33] greater than 100 µM. The GI50 [34] was greater than 100 µM, the TGI [34] was greater than 100 µM and the GI50 [35] was greater than 100 µM. For the same compound, the TGI [35] was greater than 100 µM, the GI50 [36] was greater than 100 µM and the TGI [36] was greater than 100 µM. The GI50 [37] was greater than 100 µM, the TGI [37] was greater than 100 µM and the GI50 [38] was greater than 100 µM. The TGI [38] was greater than 100 µM, the GI50 [39] was greater than 100 µM and the TGI [39] was greater than 100 µM. The GI50 [40] was greater than 100 µM, the TGI [40] was greater than 100 µM and the GI50 [41] was greater than 100 µM. For the same compound, the TGI [41] was greater than 100 µM, the GI50 [42] was greater than 100 µM and the TGI [42] was greater than 100 µM. For the same compound, the GI50 [43] was greater than 100 µM, the TGI [43] was greater than 100 µM and the GI50 [44] was greater than 100 µM. The TGI [44] was greater than 100 µM, the GI50 [45] was greater than 100 µM and the TGI [45] was greater than 100 µM. For the same compound, the GI50 [46] was greater than 100 µM, the TGI [46] was greater than 100 µM and the GI50 [47] was greater than 100 µM. It also gave a TGI [47] greater than 100 µM, a GI50 [48] greater than 100 µM and a TGI [48] greater than 100 µM. For the same compound, the GI50 [49] was greater than 100 µM, the TGI [49] was greater than 100 µM and the GI50 [50] was greater than 100 µM. It also gave a TGI [50] greater than 100 µM, a GI50 [51] greater than 100 µM and a TGI [51] greater than 100 µM. The GI50 [52] was greater than 100 µM, the TGI [52] was greater than 100 µM and the GI50 [53] was greater than 100 µM. For the same compound, the TGI [53] was greater than 100 µM.
